Experimental data from ChEMBL document CHEMBL4689842, “EUbOPEN Chemogenomics Library wave 1” (2021).

System: HEK-293T
Assay: Incucyte cell viability with HEK293T; note: filed as whole numbers so only -1 and 0 and 1 occur
Type: toxicity, cell-based
Conditions: human, 10 µM, compound concentration 10 uM
[1] = 6 h, replicate number 1, timepoint 6 hours
[2] = 12 h, replicate number 1, timepoint 12 hours
[3] = 18 h, replicate number 1, timepoint 18 hours
[4] = 24 h, replicate number 1, timepoint 24 hours
[5] = 0 h, replicate number 1, timepoint 0 hours
[6] = 0 h, replicate number 2, timepoint 0 hours
[7] = 6 h, replicate number 2, timepoint 6 hours
[8] = 12 h, replicate number 2, timepoint 12 hours

Row | Structure (SMILES) | Growth Rate [1] | Growth Rate [2] | Growth Rate [3] | Growth Rate [4] | Growth Rate [5] | Growth Rate [6] | Growth Rate [7] | Growth Rate (24 h, replicate number 2, timepoint 24 hours) | Growth Rate [8]
1 | C=CC(=O)Nc1cccc(Oc2nc(Nc3ccc(N4CCN(C)CC4)cc3OC)ncc2Cl)c1 | 0 | 0 | 0 | 0 | – | – | – | – | –
2 | Cc1cccc(CN2CCN(C(c3ccccc3)c3ccc(Cl)cc3)CC2)c1.Cl.Cl (stereo not given) | 0 | 0 | 0 | 0 | 1 | 0 | – | – | –
3 | C=CC(=O)Nc1cccc(Sc2nc(Nc3ccc(N4CCN(C)CC4)cc3)ncc2Cl)c1 | 0 | 0 | 0 | 0 | – | – | – | – | –
4 | CC(C)OC(=O)N1CCC(Oc2ncnc3c2cnn3-c2ccc(S(C)(=O)=O)cc2F)CC1 | 0 | 0 | 0 | 0 | – | 1 | – | – | –
5 | COc1cc(Nc2nccc(-c3cnn4nc(OC)ccc34)n2)cc(C(F)(F)F)c1 | 0 | 0 | 0 | 0 | – | – | – | – | –
6 | O=c1cc(N2CCOCC2)oc2c(-c3cccc4c3sc3ccccc34)cccc12 | 0 | 0 | 0 | 0 | – | – | – | – | –
7 | O=C(c1cc2c(cc1F)OC(c1ccc(F)cc1)(c1ccc(Cl)cc1Cl)O2)N1CCOCC1 (stereo not given) | 0 | 0 | 0 | 0 | 0 | – | – | – | –
8 | CC(C)NC(=O)N1CC[C@H](NC2=Nc3cc(F)ccc3N(CC(F)F)c3ccc(Cl)cc32)C1 | – | 1 | 1 | 1 | 0 | – | 0 | 0 | –
9 | CC(C)Oc1ccccc1C(=O)Nc1ccccc1C(=O)Nc1cccc(S(=O)(=O)C(F)(F)F)c1 | 0 | 0 | 0 | 0 | 0 | – | – | – | –
10 | CC1=C(C(=O)Nc2cc3cn[nH]c3cc2F)C(c2ccc(C(F)(F)F)cc2)CC(=O)N1 (stereo not given) | – | – | – | 1 | 0 | – | – | – | –
11 | Cc1nc(N2CC[C@H](O)C2)ncc1-c1cc(C(F)(F)F)cc2[nH]ncc12 | 0 | 0 | 0 | 0 | 1 | – | – | – | –
12 | CN1CCN(Cc2cc(NC(=O)c3ccc4c(c3)CN(c3ccccc3)CC4)cc(C(F)(F)F)c2)CC1 | 0 | 0 | 0 | 0 | – | – | – | – | –
13 | CN(c1ccccc1CNc1nc(Nc2ccc3c(c2)CC(=O)N3)ncc1C(F)(F)F)S(C)(=O)=O | 0 | 0 | 0 | 0 | – | – | – | – | –
14 | Cl.O=C(O)c1cc(-c2ccc(C3CCNCC3)cc2)c2ccc(-c3ccc(C(F)(F)F)cc3)cc2c1 | 0 | 0 | 0 | 0 | 0 | – | 1 | – | –
15 | O=c1[nH]c2ccccc2n1C1CCN(Cc2ccc(-c3[nH]c4cc5ncnc5cc4nc3-c3ccccc3)cc2)CC1 | 0 | 0 | 0 | 0 | – | 1 | – | – | –
16 | CCc1ccc(OCc2ccccc2C(=O)Nc2ccc3nc(C)cc(N)c3c2)cc1.Cl | 0 | 0 | 0 | 0 | – | – | – | – | –
17 | CNC(=O)Nc1ccc(-c2nc(N3CC4CCC(C3)O4)c3cnn(C4CCC5(CC4)OCCO5)c3n2)cc1 | 0 | 0 | 0 | 0 | – | – | – | – | –
18 | CNC(=O)Nc1ccc2c(c1)[C@@]1(CC2)OC(=O)N(CC(=O)N(Cc2ccc(F)cc2)[C@@H](C)C(F)(F)F)C1=O [A-486] | 0 | 0 | 0 | 0 | 1 | – | – | – | –
19 | CNCc1ccccc1-c1csc([C@@H](C)Nc2nc(C)nc3cc(OC)c(OC)cc23)c1 [BAY-293] | 0 | 0 | 0 | 0 | – | – | – | – | –

Row | Structure (SMILES) | Growth Rate [1] | Growth Rate [2] | Growth Rate [3] | Growth Rate [4] | Growth Rate [5] | Growth Rate [6] | Growth Rate [7] | Growth Rate (24 h, replicate number 2, timepoint 24 hours) | Growth Rate [8]
20 | Cc1c[nH]c2nccc(Oc3c(F)cc(Nc4cc(Cl)nc(N)n4)cc3F)c12 [BAY-549] | 0 | 0 | 0 | 0 | 0 | – | – | – | –
21 | Cc1cc(C)c(-n2ccn3nc(-c4cccnc4)cc23)cc1NC(=O)c1cc(C#N)cc(S(F)(F)(F)(F)F)c1 [BAY-826] | 0 | 0 | 0 | 0 | 0 | – | – | – | –
22 | COc1ccc(-c2ccc3ncc4c(c3c2)n(-c2ccc(N3CCNCC3)c(C(F)(F)F)c2)c(=O)n4C)cn1.O=C(O)/C=C\C(=O)O [BGT-226] | 0 | 0 | 0 | 0 | – | – | – | – | –
23 | C=CC(=O)Nc1ccc2[nH]c(=O)n(C3CCN(Cc4ccc(-c5nc6cc[nH]c(=O)c6cc5-c5ccccc5)cc4)CC3)c2c1 [Borussertib] | 0 | 0 | 0 | 0 | 0 | 1 | – | – | –
24 | COc1ccccc1CN[C@H]1C2CCN(CC2)[C@H]1C(c1ccccc1)c1ccccc1 [CP-96345] | 0 | 0 | 0 | 0 | 1 | 0 | – | – | –
25 | CNC(=O)c1ccc(Nc2ncc(C(F)(F)F)c(NCc3nccnc3N(C)S(C)(=O)=O)n2)cc1 [DEFACTINIB] | 0 | 0 | 0 | 0 | 1 | – | – | – | –
26 | CN1CCN(Cc2ccc(Nc3ncc(Cl)c(Nc4ccccc4S(=O)(=O)N(C)C)n3)cc2)CC1 [DUBERMATINIB] | – | 1 | 0 | 0 | 0 | 1 | 0 | – | 0
27 | C#Cc1cccc(Nc2ncnc3cc(OCCOC)c(OCCOC)cc23)c1 [ERLOTINIB] | 0 | 0 | 0 | 0 | 0 | – | – | – | –
28 | C[C@]12CC[C@@H]3c4ccc(O)cc4CC[C@H]3[C@@H]1CC[C@@H]2O [ESTRADIOL] | 0 | 0 | 0 | 0 | 1 | 0 | – | – | –
29 | CC(C)c1noc(N2CCC(COc3ccc(-c4ccc(S(C)(=O)=O)cc4)nc3)CC2)n1 [GSK-1292263] | 0 | 0 | 0 | 0 | – | 0 | – | – | –
30 | COc1cc2ncn(-c3cc(OCc4ccccc4C(F)(F)F)c(C(N)=O)s3)c2cc1OC [GW843682X] | – | 0 | 0 | 0 | 0 | – | – | – | –
31 | Cc1ccc2c(c1)c1c(n2CCc2ccc(C)nc2)CCN(C)C1 [LATREPIRDINE] | 0 | 0 | 0 | 0 | – | 0 | – | – | –
32 | C[C@]1(O)C[C@@H](c2nc(-c3ccc4ccc(-c5ccccc5)nc4c3)c3c(N)nccn32)C1 [LINSITINIB] | 0 | 0 | 0 | 0 | – | 1 | – | – | –
33 | CCc1nn(CCCN2CCN(c3cccc(Cl)c3)CC2)c(=O)n1CCOc1ccccc1.Cl [NEFAZODONE HYDROCHLORIDE] | 0 | 0 | 0 | 0 | – | 0 | – | – | –
34 | COC(=O)C1=C(C)NC(C)=C(C(=O)OCCCN2CCC(c3ccccc3)(c3ccccc3)CC2)[C@H]1c1cccc([N+](=O)[O-])c1 [NIGULDIPINE] | 0 | 0 | 0 | 0 | – | 0 | – | – | –
35 | CC(C)CC(=O)Nc1[nH]nc2c1CN(C(=O)C1CCN(C)CC1)C2(C)C [PHA-793887] | 0 | 0 | 0 | 0 | 1 | – | – | – | –
36 | CCCSc1nc(N[C@@H]2C[C@H]2c2ccc(F)c(F)c2)c2nnn([C@@H]3C[C@H](OCCO)[C@@H](O)[C@H]3O)c2n1 [TICAGRELOR] | 0 | 0 | 0 | 0 | – | 0 | – | – | –
37 | CC(C)(C)NC[C@H](O)COc1nsnc1N1CCOCC1 [TIMOLOL] | 0 | 0 | 0 | 0 | 0 | – | – | – | 1
